The source of these data is patent US20170303557A1, “PURIFICATION OF POLYPHENOLS” (NESTEC S.A., priority 2014, published 2017).

This series in a line: Model study: degradation of 5-CQA and formation of its ethylester in 75% ethanolic solution (LC/MS-DAD). In kind it is physicochemical. The following applies: 75% ethanol. As to the method:
During the experiment 5-CQA was stored in the presence of ethanol (75% ethanolic solution) by varying the following parameters pH, temperature and time.
The process was conducted under the following conditions using 5-CQA esterification as the model.
For each trial 10 mg of 5-CQA were dissolved in 40 mL of a 75% ethanolic solution. • pH studies: The pH was adjusted to pH 1, pH 2.7 and pH 4 with hydrochloric acid (32%) and to pH 12 by using NaOH solution (4 N) and all samples were kept in a lab oven at a temperature of 80° C. for 2 hours. • Temperature studies: CQA solutions were adjusted to pH 1 with hydrochloric acid (32%) and kept for 2 hours either at room temperature, 50° C. or 80° C. in a lab oven. • Time studies: 5-CQA solutions were adjusted to pH 1 and kept at room temperature or 50° C. for 1 h, 2 h, 3 h and 36 h (RT only). • System: The analysis was performed on a LC-DAD-MS system using LCQ Deca mass spectrometer (Thermo Finnigan), with a DAD detector (Thermo Finnigan) and a Rheos HPLC system (Thermo Finnigan). • Sample Preparation: For each parameter an aliquot of the solution was diluted 1:10 and directly used for LC/MS-DAD analysis. • HPLC Method: The separation was performed at ambient temperature on a Zorbax Eclipse C18 column, 5 μm, 150*3 mm (Agilent). A binary gradient of A/B (A: 0.1% formic acid, B: methanol) was applied. • MS parameters: The Mass spectrometer used is the LCQ-Deca operated in FullScan and data dependant MS/MS mode (m/z 100-1000) for compound identification.

As for `O=C(/C=C/c1ccc(O)c(O)c1)O[C@@H]1C[C@@](O)(C(=O)O)C[C@@H](O)[C@@H]1O` [5-CQA, 5-caffeoyl quinic acid], the “ester detectable as compared to the native 5-CQA” value (pH 1, 50° C., 2 h) is listed as “Up to 40%”. In addition, the ester formed is, setting by setting: (pH 1, 50° C., period corresponding to desorption duration of up-scaled protocol (within first 3 h)) 30%; (pH 1, room temperature, 3 h) 3%; (pH 1, room temperature, 36 h) 14%. Where the note is “pH 1, 80° C., 2 h”, the “ester as compared to 5-CQA” value is listed as “same amounts of the ester as compared to 5-CQA”. In addition, the “transformation of 5-CQA into its ethylester” value (pH 1, 80° C., 2 h) is “rapid transformation of 5-CQA into its ester”. Also, the “5-CQA transformed into its ethylester” value (pH 1, RT, 2 h) is “only a small amount”. Besides, for the setting “pH 2.7, 80° C., 2 h”, the 5-CQA esterification entry was “significantly reduced”. Moreover, the “degradation of 5-CQA” value (pH 4, 80° C., 2 h) is “almost not degraded”; the “degradation of 5-CQA” value (pH 12, 80° C., 2 h) is “hydrolysis of 5-CQA yielding caffeic and quinic acid”.
